Source: ChEMBL document CHEMBL1201862, “PubChem BioAssay data set” (2004)
Activity calls are given as the source filed them.

Key:
[1] = molecular target: T1, Sentrin-specific protease 1 (Homo sapiens, UniProt Q9P0U3); experiment: SENP1 catalytic domain blockers, concentration series – biochemical, kinetic FRET, dose response (AID 651697); assay type: functional; details: read-out: IC50_Mean
T1 sequence (Q9P0U3 whole entry): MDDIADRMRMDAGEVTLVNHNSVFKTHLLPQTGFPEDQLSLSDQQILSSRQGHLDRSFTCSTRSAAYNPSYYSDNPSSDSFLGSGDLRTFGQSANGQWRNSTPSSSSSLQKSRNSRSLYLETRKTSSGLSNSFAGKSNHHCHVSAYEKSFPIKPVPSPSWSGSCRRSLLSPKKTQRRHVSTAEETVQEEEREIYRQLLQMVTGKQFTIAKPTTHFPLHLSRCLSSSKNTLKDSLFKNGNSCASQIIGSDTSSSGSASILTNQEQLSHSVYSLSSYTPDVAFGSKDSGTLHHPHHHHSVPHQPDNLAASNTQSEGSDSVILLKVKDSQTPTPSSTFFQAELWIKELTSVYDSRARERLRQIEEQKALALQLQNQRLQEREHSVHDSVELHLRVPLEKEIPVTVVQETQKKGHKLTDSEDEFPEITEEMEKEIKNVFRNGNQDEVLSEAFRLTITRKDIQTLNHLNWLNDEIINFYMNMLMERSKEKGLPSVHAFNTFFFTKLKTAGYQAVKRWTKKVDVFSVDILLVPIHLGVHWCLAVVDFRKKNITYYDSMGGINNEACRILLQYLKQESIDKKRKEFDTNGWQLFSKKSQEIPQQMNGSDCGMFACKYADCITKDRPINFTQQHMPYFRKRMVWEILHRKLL

[2] = molecular target: T1, Sentrin-specific protease 1; experiment: Dose response confirmation of small molecule inhibitors of the catalytic domain of the SUMO protease, SENP1 in a FRET assay.; assay type: functional; details: read-out: IC50_Mean
[3] = molecular target: T2, Adenosylmethionine-8-amino-7-oxononanoate aminotransferase (Mycobacterium tuberculosis, UniProt P9WQ81); experiment: Mycobacterium tuberculosis BioA enzyme inhibitor Measured in Biochemical System Using Plate Reader - 2163-02_Inhibitor_Dose_CherryPick_Activity.; assay type: functional, Mycobacterium tuberculosis UT205
T2 sequence (P9WQ81 whole entry): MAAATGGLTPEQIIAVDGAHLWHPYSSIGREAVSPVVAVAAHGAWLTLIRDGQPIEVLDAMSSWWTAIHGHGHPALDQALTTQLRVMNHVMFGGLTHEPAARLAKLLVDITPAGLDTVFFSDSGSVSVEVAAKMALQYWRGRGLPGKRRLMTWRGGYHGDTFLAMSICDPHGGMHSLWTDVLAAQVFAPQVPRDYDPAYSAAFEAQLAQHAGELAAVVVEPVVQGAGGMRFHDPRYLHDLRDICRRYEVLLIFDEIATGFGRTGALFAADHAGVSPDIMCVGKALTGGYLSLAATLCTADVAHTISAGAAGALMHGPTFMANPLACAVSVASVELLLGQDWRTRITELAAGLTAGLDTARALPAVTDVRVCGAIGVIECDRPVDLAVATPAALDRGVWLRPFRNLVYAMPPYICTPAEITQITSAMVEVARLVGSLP

[4] = molecular target: T3, Fructose-bisphosphate aldolase (Mycobacterium tuberculosis, UniProt P9WQA3); experiment: Fluorescence-based biochemical high throughput dose response assay for inhibitors of the fructose-bisphosphate aldolase (FBA) of M. tuberculosis.; assay type: functional
T3 sequence (P9WQA3 whole entry): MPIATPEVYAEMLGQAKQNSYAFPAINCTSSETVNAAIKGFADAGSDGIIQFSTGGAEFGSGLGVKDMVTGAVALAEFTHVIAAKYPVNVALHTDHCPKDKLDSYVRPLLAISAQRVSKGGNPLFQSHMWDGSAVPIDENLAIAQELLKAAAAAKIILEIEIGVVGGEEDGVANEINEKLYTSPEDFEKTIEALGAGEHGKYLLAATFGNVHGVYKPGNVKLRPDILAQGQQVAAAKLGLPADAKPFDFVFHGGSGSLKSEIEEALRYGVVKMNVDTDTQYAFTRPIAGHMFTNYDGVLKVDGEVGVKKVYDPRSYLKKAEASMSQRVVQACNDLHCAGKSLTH

[5] = molecular target: T4, Protein skinhead-1 (Caenorhabditis elegans, UniProt P34707); assay type: functional
T4 sequence (P34707 whole entry): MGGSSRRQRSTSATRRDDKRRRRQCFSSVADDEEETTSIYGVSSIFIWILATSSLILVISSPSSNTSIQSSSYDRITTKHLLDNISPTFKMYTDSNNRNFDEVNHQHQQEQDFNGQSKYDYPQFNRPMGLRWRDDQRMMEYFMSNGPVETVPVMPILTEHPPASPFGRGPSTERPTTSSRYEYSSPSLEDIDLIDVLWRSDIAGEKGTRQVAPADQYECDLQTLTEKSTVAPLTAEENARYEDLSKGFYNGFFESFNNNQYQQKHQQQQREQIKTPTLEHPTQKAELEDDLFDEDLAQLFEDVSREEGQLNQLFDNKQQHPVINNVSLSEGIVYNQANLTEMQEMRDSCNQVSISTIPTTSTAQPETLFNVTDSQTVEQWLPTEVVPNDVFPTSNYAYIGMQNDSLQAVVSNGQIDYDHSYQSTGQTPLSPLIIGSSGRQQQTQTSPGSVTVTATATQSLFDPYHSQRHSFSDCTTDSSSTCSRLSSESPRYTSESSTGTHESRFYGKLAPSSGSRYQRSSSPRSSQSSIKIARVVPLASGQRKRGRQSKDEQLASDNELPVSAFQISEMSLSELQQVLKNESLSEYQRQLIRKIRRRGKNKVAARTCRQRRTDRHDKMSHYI

[6] = molecular target: T5, Mannose-6-phosphate isomerase (Homo sapiens, UniProt P34949); experiment: MPI inhibition at elevated mannose 6-phosphate – biochemical, fluorescence intensity, high mannose 6-phosphate, primary screen (AID 1220)
T5 sequence (P34949 whole entry): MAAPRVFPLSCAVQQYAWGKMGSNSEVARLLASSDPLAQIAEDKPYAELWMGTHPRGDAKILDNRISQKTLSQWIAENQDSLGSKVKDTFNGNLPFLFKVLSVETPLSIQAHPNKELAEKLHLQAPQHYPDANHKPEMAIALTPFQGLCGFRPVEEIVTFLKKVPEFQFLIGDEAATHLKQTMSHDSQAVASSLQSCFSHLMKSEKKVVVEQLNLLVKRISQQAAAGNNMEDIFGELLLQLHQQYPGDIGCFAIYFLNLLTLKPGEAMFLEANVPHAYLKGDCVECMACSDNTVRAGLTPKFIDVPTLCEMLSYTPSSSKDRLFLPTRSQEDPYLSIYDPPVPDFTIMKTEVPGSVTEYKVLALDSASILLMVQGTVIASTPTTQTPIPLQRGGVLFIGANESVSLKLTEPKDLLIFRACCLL

[7] = molecular target: T6, Long-chain-fatty-acid--AMP ligase FadD28 (Mycobacterium tuberculosis, UniProt P9WQ59); experiment: Fluorescence polarization aasay to screen for inhibitors that compete for the binding of FadD28 to a bisubstrate Measured in Biochemical System Using Plate Reader - 2147-01_Inhibitor_Dose_CherryPick_Activity.; assay type: functional, Mycobacterium tuberculosis H37Rv
T6 sequence (P9WQ59 whole entry): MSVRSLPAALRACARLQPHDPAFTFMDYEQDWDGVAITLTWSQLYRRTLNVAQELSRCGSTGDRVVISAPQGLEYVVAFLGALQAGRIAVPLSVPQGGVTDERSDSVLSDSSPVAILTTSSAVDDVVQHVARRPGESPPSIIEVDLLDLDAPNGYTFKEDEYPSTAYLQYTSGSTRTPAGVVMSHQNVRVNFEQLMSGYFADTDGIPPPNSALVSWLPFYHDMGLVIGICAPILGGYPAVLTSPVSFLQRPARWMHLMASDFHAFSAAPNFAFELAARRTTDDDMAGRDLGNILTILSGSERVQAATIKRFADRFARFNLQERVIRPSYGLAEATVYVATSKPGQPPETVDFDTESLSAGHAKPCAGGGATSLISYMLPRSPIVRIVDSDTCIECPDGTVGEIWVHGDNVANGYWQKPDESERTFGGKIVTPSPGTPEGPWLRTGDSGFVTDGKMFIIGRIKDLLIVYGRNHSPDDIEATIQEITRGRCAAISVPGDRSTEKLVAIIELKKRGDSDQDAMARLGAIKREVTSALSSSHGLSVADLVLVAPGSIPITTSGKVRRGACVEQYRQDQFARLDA

[8] = test system: Cryptococcus neoformans; experiment: PubChem AID 686997; assay type: functional, organism-based; details: Cryptococcus neoformans
[9] = molecular target: T7, DNA repair and recombination protein RAD54-like (Homo sapiens, UniProt Q92698); experiment: RAD54 Holliday junction migration blockers – biochemical, fluorescence, cherry-picked samples, dose series, confirmation (AID 651657); assay type: functional
T7 sequence (Q92698 whole entry): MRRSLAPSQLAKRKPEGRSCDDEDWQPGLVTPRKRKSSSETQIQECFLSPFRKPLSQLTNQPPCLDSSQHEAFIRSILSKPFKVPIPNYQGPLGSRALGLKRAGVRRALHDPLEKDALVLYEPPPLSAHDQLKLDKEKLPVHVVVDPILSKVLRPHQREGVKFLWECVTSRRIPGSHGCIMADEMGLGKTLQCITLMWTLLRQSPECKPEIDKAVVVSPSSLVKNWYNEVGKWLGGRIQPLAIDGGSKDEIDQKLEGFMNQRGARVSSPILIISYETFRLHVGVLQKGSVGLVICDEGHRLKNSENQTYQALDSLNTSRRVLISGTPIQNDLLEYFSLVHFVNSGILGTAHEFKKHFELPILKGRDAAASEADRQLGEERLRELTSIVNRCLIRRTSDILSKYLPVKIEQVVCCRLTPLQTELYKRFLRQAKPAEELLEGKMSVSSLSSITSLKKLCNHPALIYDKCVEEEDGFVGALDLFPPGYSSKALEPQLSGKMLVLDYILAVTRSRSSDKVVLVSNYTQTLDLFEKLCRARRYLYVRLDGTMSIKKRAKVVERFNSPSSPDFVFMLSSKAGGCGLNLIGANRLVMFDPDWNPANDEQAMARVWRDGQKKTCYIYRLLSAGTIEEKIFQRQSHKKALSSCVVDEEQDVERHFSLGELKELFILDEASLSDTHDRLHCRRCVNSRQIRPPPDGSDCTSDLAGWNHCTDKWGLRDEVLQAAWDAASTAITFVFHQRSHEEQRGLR

[10] = molecular target: T8, Corticotropin-releasing factor receptor 2/Corticotropin-releasing factor-binding protein (Homo sapiens, UniProt P24387+Q13324); experiment: Dose Response confirmation of uHTS hits for small molecule antagonists of the CRF-binding protein and CRF-R2 receptor complex.; assay type: functional; details: read-out: IC50_Mean
T8 sequence (Q13324 whole entry): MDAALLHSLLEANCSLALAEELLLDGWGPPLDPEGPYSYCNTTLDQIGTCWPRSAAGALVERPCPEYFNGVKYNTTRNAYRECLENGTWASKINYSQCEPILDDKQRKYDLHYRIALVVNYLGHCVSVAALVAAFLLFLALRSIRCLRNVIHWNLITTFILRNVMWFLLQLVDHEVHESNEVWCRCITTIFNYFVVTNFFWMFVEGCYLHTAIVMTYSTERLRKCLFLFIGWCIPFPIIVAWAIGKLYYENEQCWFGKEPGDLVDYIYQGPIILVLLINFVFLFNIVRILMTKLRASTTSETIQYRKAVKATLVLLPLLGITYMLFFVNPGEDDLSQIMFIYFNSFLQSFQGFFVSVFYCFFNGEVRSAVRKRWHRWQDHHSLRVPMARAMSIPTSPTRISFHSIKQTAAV
T8 sequence (P24387 whole entry): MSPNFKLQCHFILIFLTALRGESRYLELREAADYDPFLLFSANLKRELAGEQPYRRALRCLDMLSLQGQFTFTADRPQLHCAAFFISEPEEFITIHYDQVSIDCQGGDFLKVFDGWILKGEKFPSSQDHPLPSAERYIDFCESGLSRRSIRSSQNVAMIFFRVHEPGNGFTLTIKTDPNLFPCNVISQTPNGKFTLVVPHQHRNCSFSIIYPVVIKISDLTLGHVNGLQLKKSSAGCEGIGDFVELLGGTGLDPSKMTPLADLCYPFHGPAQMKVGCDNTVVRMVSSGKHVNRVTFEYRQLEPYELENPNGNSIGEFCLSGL

[11] = molecular target: T8, Corticotropin-releasing factor receptor 2/Corticotropin-releasing factor-binding protein; experiment: activators of CRF receptor 2 with binding protein – uHTS hits, confirmation (AID 602473); assay type: functional; details: read-out: EC50_Mean
[12] = blockers of CRF-binding protein–CRF-R2 complex – cell-based, uHTS hits, 384-well, dose response (AID 651639); assay type: functional, Homo sapiens; details: read-out: IC50_Mean
[13] = molecular target: Heat shock protein HSP 90-alpha (Homo sapiens, UniProt P07900); assay type: functional, organism-based

Cc1ccc(-c2csc3nc(-c4ccncc4)[nH]c(=O)c23)cc1
IC50 [1]: 69.3 µM (inactive)
IC50 [2]: 62 µM (inactive)

Cn1nnc2cc(C(=O)Nc3cccnc3)ccc21
AC50 [3]: 4.17 µM (active)

CC(C)CC(C(=O)Oc1ccc2c3c(c(=O)oc2c1)CCC3)N1C(=O)c2ccccc2C1=O (configuration not stated)
IC50 [4]: 1.27 µM (active)
IC50 [5]: > 100 µM (inactive)

C/C=C/c1ccc2c(c1)O[C@@H](CN(C)C(=O)Nc1ccccc1)[C@H](C)CN([C@H](C)CO)S2(=O)=O
AC50 [3]: 5.6 µM (active)

Oc1ccccc1Oc1c(F)c(F)nc(N2CCCC2)c1F
IC50 [6]: > 50 µM (not active)
AC50 [7]: 42.5 µM (active)

Cc1cc(C)c2nc(N3CCN(C(=O)c4cccs4)CC3)sc2c1
AC50 [8]: > 70 µM (inactive)

Oc1nc(N2CCN(Cc3ccc4c(c3)OCO4)CC2)nc2c1CCCC2
AC50 [3]: 0.921 µM (active)

Nc1nnc(/C=C/c2ccccc2Cl)s1
IC50 [4]: 1.59 µM (active)

CCOC(=O)c1c(C)n(C)c2ccc(OCC(O)CN3CCN(C)CC3)cc12 (configuration not stated)
AC50 [9]: 38.9 µM (active)

CN(Cc1ccc([N+](=O)[O-])cc1)c1ccccc1
IC50 [10]: 2.92 µM (active)
EC50 [11]: > 53 µM (inactive)
AC50 [7]: > 100 µM (inactive)
IC50 [12]: 7.06 µM (active)

CCCN(CCC)C(=O)Cn1c(=O)c2sccc2n2c(=S)sc(-c3ccccc3)c12
IC50 [1]: 73.8 µM (inactive)
IC50 [2]: 12.6 µM (active)

CSc1nc(SCC(N)=O)c2c3c(sc2n1)CN(C)CC3
AC50 [9]: 17.2 µM (active)

Oc1ccc(C=NN=C2c3ccccc3-c3ccccc32)c(O)c1
AC50 [13]: 12.1 µM (active)
IC50 [1]: 12.5 µM (active)
IC50 [2]: 6.06 µM (active)
